According to ChEMBL document CHEMBL3046365, “Insecticidal Activity of Pyridalyl: Acute and Sub-Acute Symptoms in Spodoptera litura Larvae” (2004):
Activity calls are given as the source filed them. The rule behind the calls is not given here.

Legend:
[1] = test system: Spodoptera litura; experiment: Acute insecticidal activity against fifth-instar Spodoptera litura larvae assessed as decrease in mobility at 50 to 400 ng applied topically; type: functional, organism-based
[2] = test system: Spodoptera litura; experiment: Insecticidal activity against fifth-instar Spodoptera litura larvae assessed as inhibition of ecdysis at 1.56 to 25 ng applied topically measured after 5 days; type: functional, organism-based
[3] = test system: Spodoptera litura; experiment: Acute insecticidal activity against fifth-instar Spodoptera litura larvae assessed as flaccid paralysis at 50 to 400 ng applied topically; type: functional, organism-based
[4] = test system: Spodoptera litura; experiment: Acute insecticidal activity against fifth-instar Spodoptera litura larvae assessed as mortality at 50 ng applied topically measured within 3 days; type: functional
[5] = test system: Spodoptera litura; experiment: Insecticidal activity against fifth-instar Spodoptera litura larvae assessed as mortality compound applied topically measured after 3 days; type: functional
[6] = test system: Spodoptera litura; experiment: Insecticidal activity against fifth-instar Spodoptera litura larvae assessed as mortality at 1.56 to 25 ng applied topically measured after 5 days; type: functional, organism-based
[7] = test system: Spodoptera litura; experiment: Acute insecticidal activity against fifth-instar Spodoptera litura larvae assessed as decrease in body elasticity at 50 to 400 ng applied topically; type: functional, organism-based
[8] = test system: Spodoptera litura; experiment: Acute insecticidal activity against fifth-instar Spodoptera litura larvae assessed as mortality at 200 ng applied topically measured after 1 hr; type: functional, organism-based
[9] = test system: Spodoptera litura; experiment: Insecticidal activity against fifth-instar Spodoptera litura larvae assessed as abnormal body shape at 1.56 to 25 ng applied topically; type: functional, organism-based
[10] = test system: Spodoptera litura; experiment: Insecticidal activity against fifth-instar Spodoptera litura larvae at 1.56 to 25 ng applied topically measured up to 1 day; type: functional, organism-based
[11] = test system: Spodoptera litura; experiment: Acute insecticidal activity against fifth-instar Spodoptera litura larvae assessed as decrease in vigor at 50 to 400 ng applied topically; type: functional, organism-based
[12] = test system: Spodoptera litura; experiment: Insecticidal activity against fifth-instar Spodoptera litura larvae assessed as mortality compound applied topically measured after 1 day; type: functional
[13] = test system: Spodoptera litura; experiment: Acute insecticidal activity against fifth-instar Spodoptera litura larvae assessed as mortality at 400 ng applied topically measured after 1 hr; type: functional, organism-based
[14] = test system: Spodoptera litura; experiment: Insecticidal activity against fifth-instar Spodoptera litura larvae assessed as mortality at 25 ng applied topically measured after 5 days; type: functional, organism-based
[15] = test system: Spodoptera litura; experiment: Acute insecticidal activity against fifth-instar Spodoptera litura larvae assessed as mortality at 50 ng applied topically measured after 6 hr; type: functional, organism-based
[16] = test system: Spodoptera litura; experiment: Insecticidal activity against fifth-instar Spodoptera litura larvae assessed as mortality compound applied topically measured after 2 days; type: functional
[17] = test system: Spodoptera litura; experiment: Acute insecticidal activity against fifth-instar Spodoptera litura larvae assessed as mortality at 200 ng applied topically measured after 3 hr; type: functional
[18] = test system: Spodoptera litura; experiment: Insecticidal activity against fifth-instar Spodoptera litura larvae assessed as inhibition of emergence as adult at 1.56 to 25 ng applied topically; type: functional, organism-based
[19] = test system: Spodoptera litura; experiment: Acute insecticidal activity against fifth-instar Spodoptera litura larvae assessed as mortality at 100 ng applied topically measured after 6 hr; type: functional
[20] = test system: Spodoptera litura; experiment: Insecticidal activity against fifth-instar Spodoptera litura larvae assessed as burn scar on the area where compound applied at 1.56 to 6.25 ng applied topically measured after 4 days; type: functional, organism-based
[21] = test system: Spodoptera litura; experiment: Acute insecticidal activity against fifth-instar Spodoptera litura larvae assessed as mortality at 400 ng applied topically measured after 2 hr; type: functional

FC(F)(F)c1ccc(OCCCOc2c(Cl)cc(OCC=C(Cl)Cl)cc2Cl)nc1 [PYRIDALYL]
Activity [1]: Active | Activity [2]: Active | Activity [3]: Active | mortality [4]: >50% | LD50 [5]: 24.4 ng | inhibition [6]: Active | Activity [7]: Active | Activity [8]: Active | inhibition [9]: Active | Activity [10]: inactive | Activity [11]: Active | LD50 [12]: 57.3 ng | Activity [13]: Active | Activity [14]: Active | Activity [15]: inactive | LD50 [16]: 50.1 ng | mortality [17]: 100% | Activity [18]: Active | mortality [19]: 100% | Activity [20]: Active | mortality [21]: 100%
